The test system of this assay is C57BL/6 mice, Adenocarcinoma 755 sc, tumor weight T/C. Nature of the assay: NCI In Vivo Anticancer Drug Screen. Data for tumor model Adenocarcinoma 755 (subcutaneous) in C57BL/6 mice. The settings on record: endpoint: mean tumor weight, higher = larger tumour. As to the method:
The antitumor activity of compounds was measured in mice bearing transplantable tumors. Survival or tumor size were measured and the results are expressed as the measurement made in the treated group (T) divided by the measurement made in the vehicle treated control group (C). The tumor model used in this assay is Adenocarcinoma 755 (subcutaneous) in C57BL/6 mice

[1] abbreviates: dose: 5.0 mg/kg/injection, schedule: Q01DX011 (ip), vehicle: carboxymethylcellulose (CMC).
Where [2] appears, read: dose: 10.0 mg/kg/injection, schedule: Q01DX011 (ip), vehicle: carboxymethylcellulose (CMC).
The mark [3] stands for this setting: dose: 25.0 mg/kg/injection, schedule: Q01DX011 (ip), vehicle: carboxymethylcellulose (CMC).
Where [4] appears, read: dose: 100.0 mg/kg/injection, schedule: Q01DX011 (ip), vehicle: carboxymethylcellulose (CMC).
Where [5] appears, read: dose: 40.0 mg/kg/injection, schedule: Q01DX011 (ip), vehicle: saline.
Where [6] appears, read: dose: 50.0 mg/kg/injection, schedule: Q01DX011 (ip), vehicle: saline.

A word on the T/C: it is the ratio of treated to control.

Values joined by “and” are separate entries in the source; they are usually repeats but may differ in a detail not shown here. Equal values may be shown once.

For the molecule `CCCCNc1nc(N)nc2nc[nH]c12`, the T/C reads like this: under setting [1], 106 % of control; under setting [2], 104 % of control; under setting [3], 123 % of control; (dose: 50.0 mg/kg/injection, schedule: Q01DX011 (ip), vehicle: carboxymethylcellulose (CMC)) 78 % of control; under setting [4], 72 % of control.

As to `Nc1nc(=O)[nH]c2n[nH]nc12`, the T/C was 82 % of control under setting [1], 79 % of control under setting [2] and 64 % of control under setting [3].

Consider `[N-]=[N+]=CC(=O)CCC(N)C(=O)O` (centres undefined), for which the T/C (dose: 0.04 mg/kg/injection, schedule: Q01DX011 (ip), vehicle: saline) is 110 % of control; the T/C (dose: 0.05 mg/kg/injection, schedule: Q01DX011 (ip), vehicle: saline) is 22 % of control; the T/C (dose: 0.08 mg/kg/injection, schedule: Q01DX011 (ip), vehicle: saline) is 46 % of control; the T/C (dose: 25.0 micrograms/kg/injection, schedule: Q01DX011 (ip), vehicle: saline) is 39 % of control; the T/C (dose: 50.0 micrograms/kg/injection, schedule: Q01DX011 (ip), vehicle: saline) is 45 % of control.

As for `O=CNC(Cc1ccc(N(CCCl)CCCl)cc1)C(=O)O` (centres undefined), the T/C (dose: 40.0 mg/kg/injection, schedule: Q01DX011 (ip), vehicle: carboxymethylcellulose (CMC)) was 39 % of control and the T/C (dose: 80.0 mg/kg/injection, schedule: Q01DX011 (ip), vehicle: carboxymethylcellulose (CMC)) was 1 % of control.

As for `O=c1[nH]cc(S)c(=O)[nH]1`, the T/C (dose: 100.0 mg/kg/injection, schedule: Q02DX006 (ip), vehicle: other) is 86 % of control and the T/C (dose: 125.0 mg/kg/injection, schedule: Q02DX006 (ip), vehicle: other) is 76 % of control.

`O=c1cn[nH]c(=O)[nH]1`: the T/C under setting [4] was 159 % of control and the T/C (dose: 200.0 mg/kg/injection, schedule: Q01DX011 (ip), vehicle: carboxymethylcellulose (CMC)) was 110 % of control.

On to `Cc1c2ccccc2c(C)c2c1ccc1ccccc12`, for which the T/C was 44 % of control (dose: 9.0 mg/kg/injection, schedule: Q01DX011 (ip), vehicle: saline) and 19 % of control (dose: 19.0 mg/kg/injection, schedule: Q01DX011 (ip), vehicle: saline).

Regarding `Nc1nc2n[nH]nc2c(=O)[nH]1`, the T/C (dose: 37.5 mg/kg/injection, schedule: Q01DX007 (sc), vehicle: carboxymethylcellulose (CMC)) was 51 % of control and 66 % of control; the T/C (dose: 37.5 mg/kg/injection, schedule: Q01DX011 (ip), vehicle: saline) is 10 % of control; the T/C (dose: 37.5 mg/kg/injection, schedule: Q01DX011 (sc), vehicle: saline) is 25 % of control; the T/C (dose: 50.0 mg/kg/injection, schedule: Q01DX011 (sc), vehicle: saline) was 16 % of control; the T/C (dose: 50.0 mg/kg/injection, schedule: Q02DX006 (ip), vehicle: other) was 57 % of control; the T/C (dose: 60.0 mg/kg/injection, schedule: Q02DX006 (ip), vehicle: other) is 64 % of control. In addition, the T/C (dose: 75.0 mg/kg/injection, schedule: Q01DX011 (ip), vehicle: saline) is 6 % of control; the T/C (dose: 75.0 mg/kg/injection, schedule: Q01DX011 (sc), vehicle: saline) is 4 % of control; the T/C (dose: 100.0 mg/kg/injection, schedule: Q01DX007 (sc), vehicle: carboxymethylcellulose (CMC)) was 5 % of control and 14 % of control.

For the molecule `Cn1cc(NC(=O)c2cc(NC(=O)CN=C(N)N)cn2C)cc1C(=O)NCCC(=N)N`, the T/C was 95 % of control (dose: 20.0 mg/kg/injection, schedule: Q02DX006 (ip), vehicle: water); 69 % of control (dose: 25.0 mg/kg/injection, schedule: Q02DX006 (ip), vehicle: water); 31 % of control (dose: 30.0 mg/kg/injection, schedule: Q02DX006 (ip), vehicle: water).

With `N/C(=N\N=C\c1cccc([N+](=O)[O-])c1)N[N+](=O)[O-]`, the T/C is, setting by setting: (dose: 150.0 mg/kg/injection, schedule: Q02DX006 (ip), vehicle: saline) 24 % of control; (dose: 200.0 mg/kg/injection, schedule: Q02DX006 (ip), vehicle: saline) 41 % of control.

As for `Nc1ncnc2n[nH]nc12`, the T/C (dose: 20.0 mg/kg/injection, schedule: Q01DX011 (ip), vehicle: saline) is 60 % of control; the T/C (dose: 30.0 mg/kg/injection, schedule: Q01DX011 (ip), vehicle: saline) was 85 % of control; the T/C under setting [5] was 46 % of control.

With `C=CC(CN1CC1)OC(C)=O` (centres undefined), the T/C reads like this: (dose: 1.0 mg/kg/injection, schedule: Q01DX011 (oral), vehicle: saline) 63 % of control; (dose: 1.0 mg/kg/injection, schedule: Q#A X022 (ip), vehicle: saline) 92 % of control; (dose: 2.0 mg/kg/injection, schedule: Q01DX011 (ip), vehicle: saline) 66 % of control; (dose: 2.0 mg/kg/injection, schedule: Q01DX011 (oral), vehicle: saline) 49 % of control; (dose: 2.0 mg/kg/injection, schedule: Q#A X022 (ip), vehicle: saline) 43 % of control; (dose: 3.25 mg/kg/injection, schedule: Q01DX011 (oral), vehicle: saline) 38 % of control. Moreover, the T/C was 38 % of control (dose: 4.0 mg/kg/injection, schedule: Q01DX011 (ip), vehicle: saline); 26 % of control (dose: 4.0 mg/kg/injection, schedule: Q01DX011 (oral), vehicle: saline); 14 % of control (dose: 4.0 mg/kg/injection, schedule: Q01DX011 (sc), vehicle: saline); 88 % of control (dose: 6.0 mg/kg/injection, schedule: Q03DX004 (ip), vehicle: saline); 15 % of control (dose: 7.5 mg/kg/injection, schedule: Q01DX011 (oral), vehicle: saline); 17 % of control (dose: 8.0 mg/kg/injection, schedule: Q01DX011 (ip), vehicle: saline). The T/C (dose: 8.0 mg/kg/injection, schedule: Q01DX011 (oral), vehicle: saline) is 21 % of control; the T/C (dose: 8.0 mg/kg/injection, schedule: Q01DX011 (sc), vehicle: saline) is 8 % of control; the T/C (dose: 12.0 mg/kg/injection, schedule: Q03DX004 (ip), vehicle: saline) was 59 % of control; the T/C (dose: 16.0 mg/kg/injection, schedule: Q01DX011 (oral), vehicle: saline) is 5 % of control; the T/C (dose: 24.0 mg/kg/injection, schedule: Q03DX004 (ip), vehicle: saline) is 11 % of control.

On to `C[C@@H]1CC2=CC(=O)C=C[C@]2(C)[C@H]2CC[C@@]3(C)[C@@H](CC[C@]3(C)O)[C@H]12`, for which the T/C was 70 % of control (dose: 50.0 mg/kg/injection, schedule: Q01DX011 (sc), vehicle: steriod suspending solution); 73 % of control (dose: 100.0 mg/kg/injection, schedule: Q01DX011 (sc), vehicle: steriod suspending solution); 58 % of control (dose: 200.0 mg/kg/injection, schedule: Q01DX011 (sc), vehicle: steriod suspending solution); 29 % of control (dose: 400.0 mg/kg/injection, schedule: Q01DX011 (sc), vehicle: steriod suspending solution).

On to `CSc1ncnc2c1ncn2C1OC(CO)C(O)C1O` (centres undefined), for which the T/C is, setting by setting: (dose: 5.0 mg/kg/injection, schedule: Q01DX011 (ip), vehicle: saline) 78 % of control; (dose: 10.0 mg/kg/injection, schedule: Q01DX011 (ip), vehicle: saline) 50 % of control; (dose: 15.0 mg/kg/injection, schedule: Q01DX011 (ip), vehicle: saline) 67 % of control.

Regarding `CCCCCCCCCCCNc1ncnc2[nH]ncc12`, the T/C is, setting by setting: under setting [6], 46 % of control; (dose: 100.0 mg/kg/injection, schedule: Q01DX011 (ip), vehicle: saline) 41 % of control.

Turning to `O=c1[nH][nH]c(=O)[nH]1`, the T/C was 85 % of control (dose: 200.0 mg/kg/injection, schedule: Q01DX011 (ip), vehicle: saline) and 94 % of control (dose: 225.0 mg/kg/injection, schedule: Q01DX011 (ip), vehicle: saline).

On to `Nc1nc(=S)c2ncn(C3OC(CO)C(O)C3O)c2[nH]1` (centres undefined), for which the T/C was 48 % of control (dose: 0.5 mg/kg/injection, schedule: Q01DX011 (ip), vehicle: carboxymethylcellulose (CMC)); 13 % of control (dose: 1.0 mg/kg/injection, schedule: Q01DX011 (ip), vehicle: carboxymethylcellulose (CMC)); 2 % of control (dose: 2.0 mg/kg/injection, schedule: Q01DX011 (ip), vehicle: carboxymethylcellulose (CMC)).

On to `CCCCNc1ncnc2c1cnn2C`, for which the T/C was 3 % of control under setting [5] and 13 % of control under setting [6].

For the molecule `Clc1ccc(N2CCN(CCCN3CCN(c4cccc(Cl)c4)CC3)CC2)cc1`, the T/C runs as follows: (dose: 7.5 mg/kg/injection, schedule: Q01DX011 (ip), vehicle: carboxymethylcellulose (CMC)) 43 % of control; (dose: 15.0 mg/kg/injection, schedule: Q01DX011 (ip), vehicle: carboxymethylcellulose (CMC)) 38 % of control; (dose: 30.0 mg/kg/injection, schedule: Q01DX011 (ip), vehicle: carboxymethylcellulose (CMC)) 54 % of control.

Source of the values: PubChem BioAssay AID218 (DTP/NCI, 2004).
